Experimental data published in ChEMBL document CHEMBL5291721, “A preclinical secondary pharmacology resource illuminates target-adverse drug reaction associations of marketed drugs” (Nat Commun, 2023).

What was measured:
Progesterone receptor = target: T1, Progesterone receptor (Homo sapiens, UniProt P06401)
T1 sequence (P06401 whole entry): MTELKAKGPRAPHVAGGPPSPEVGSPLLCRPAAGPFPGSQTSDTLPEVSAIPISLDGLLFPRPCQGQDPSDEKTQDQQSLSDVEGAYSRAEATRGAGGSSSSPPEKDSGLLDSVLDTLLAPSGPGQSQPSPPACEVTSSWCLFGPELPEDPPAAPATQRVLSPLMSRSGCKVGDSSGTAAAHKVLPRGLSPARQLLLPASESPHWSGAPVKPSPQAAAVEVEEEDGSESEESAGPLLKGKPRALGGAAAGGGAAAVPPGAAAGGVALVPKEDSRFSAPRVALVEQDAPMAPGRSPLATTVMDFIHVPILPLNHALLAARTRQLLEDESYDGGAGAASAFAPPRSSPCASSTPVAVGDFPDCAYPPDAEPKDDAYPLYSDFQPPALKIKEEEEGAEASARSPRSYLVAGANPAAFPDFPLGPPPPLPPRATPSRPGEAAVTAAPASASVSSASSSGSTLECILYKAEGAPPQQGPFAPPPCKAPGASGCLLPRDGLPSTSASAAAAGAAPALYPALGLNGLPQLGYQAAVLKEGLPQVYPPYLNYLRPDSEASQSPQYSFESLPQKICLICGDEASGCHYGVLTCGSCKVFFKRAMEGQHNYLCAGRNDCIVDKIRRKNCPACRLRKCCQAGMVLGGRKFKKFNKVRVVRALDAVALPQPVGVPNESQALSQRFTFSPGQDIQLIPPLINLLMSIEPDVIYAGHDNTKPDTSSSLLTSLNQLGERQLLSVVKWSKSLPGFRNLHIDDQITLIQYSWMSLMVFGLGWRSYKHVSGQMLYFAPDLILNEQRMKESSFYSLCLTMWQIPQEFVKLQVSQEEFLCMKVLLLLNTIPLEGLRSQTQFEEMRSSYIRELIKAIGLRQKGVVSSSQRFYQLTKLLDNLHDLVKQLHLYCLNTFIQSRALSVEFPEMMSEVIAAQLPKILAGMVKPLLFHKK

[1] = target: T2, Amine oxidase [flavin-containing] A (Homo sapiens, UniProt P21397); type: functional
T2 sequence (P21397 whole entry): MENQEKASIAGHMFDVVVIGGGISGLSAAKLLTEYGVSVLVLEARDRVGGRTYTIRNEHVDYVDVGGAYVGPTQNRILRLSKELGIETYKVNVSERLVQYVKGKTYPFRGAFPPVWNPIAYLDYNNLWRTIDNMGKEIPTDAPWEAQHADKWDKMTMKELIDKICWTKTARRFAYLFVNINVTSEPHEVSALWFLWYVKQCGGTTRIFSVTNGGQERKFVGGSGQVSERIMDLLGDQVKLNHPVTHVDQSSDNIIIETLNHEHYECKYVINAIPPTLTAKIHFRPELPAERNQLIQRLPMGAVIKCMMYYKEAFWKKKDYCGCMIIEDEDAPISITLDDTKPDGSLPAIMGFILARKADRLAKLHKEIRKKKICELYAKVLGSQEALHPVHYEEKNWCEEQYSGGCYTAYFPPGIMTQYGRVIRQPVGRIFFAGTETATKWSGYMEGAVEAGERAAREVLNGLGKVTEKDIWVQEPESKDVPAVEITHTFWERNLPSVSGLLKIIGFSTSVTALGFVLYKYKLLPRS

[2] = target: T3, Muscarinic acetylcholine receptor M1 (Homo sapiens, UniProt P11229); type: functional, cell-based
T3 sequence (P11229 whole entry): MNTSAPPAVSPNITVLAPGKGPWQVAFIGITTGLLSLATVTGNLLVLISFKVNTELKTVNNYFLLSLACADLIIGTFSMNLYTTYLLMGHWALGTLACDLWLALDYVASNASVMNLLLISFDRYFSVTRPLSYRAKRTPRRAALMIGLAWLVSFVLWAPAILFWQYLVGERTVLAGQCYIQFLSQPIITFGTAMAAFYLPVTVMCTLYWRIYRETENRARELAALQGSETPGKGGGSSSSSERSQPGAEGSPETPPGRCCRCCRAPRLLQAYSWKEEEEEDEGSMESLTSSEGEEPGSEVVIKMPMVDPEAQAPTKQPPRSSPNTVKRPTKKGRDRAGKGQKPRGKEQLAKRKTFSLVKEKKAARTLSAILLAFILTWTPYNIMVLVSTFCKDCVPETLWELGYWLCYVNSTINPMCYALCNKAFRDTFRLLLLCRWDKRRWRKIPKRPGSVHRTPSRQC

Thromboxane A2 receptor = target: T4, Thromboxane A2 receptor (Homo sapiens, UniProt P21731); type: functional, cell-based
T4 sequence (P21731 whole entry): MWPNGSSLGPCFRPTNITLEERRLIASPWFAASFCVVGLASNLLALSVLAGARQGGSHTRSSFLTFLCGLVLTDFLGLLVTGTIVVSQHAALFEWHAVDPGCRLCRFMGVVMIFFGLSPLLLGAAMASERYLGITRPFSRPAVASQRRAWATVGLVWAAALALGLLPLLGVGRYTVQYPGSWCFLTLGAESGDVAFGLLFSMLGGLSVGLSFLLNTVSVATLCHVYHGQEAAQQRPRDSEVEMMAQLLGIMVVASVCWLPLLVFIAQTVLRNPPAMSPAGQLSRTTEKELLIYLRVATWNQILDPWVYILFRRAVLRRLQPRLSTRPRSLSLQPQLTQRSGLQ

[3] = target: Sodium-dependent serotonin transporter (Homo sapiens, UniProt P31645)
Chain of Sodium-dependent serotonin transporter (P31645 whole entry): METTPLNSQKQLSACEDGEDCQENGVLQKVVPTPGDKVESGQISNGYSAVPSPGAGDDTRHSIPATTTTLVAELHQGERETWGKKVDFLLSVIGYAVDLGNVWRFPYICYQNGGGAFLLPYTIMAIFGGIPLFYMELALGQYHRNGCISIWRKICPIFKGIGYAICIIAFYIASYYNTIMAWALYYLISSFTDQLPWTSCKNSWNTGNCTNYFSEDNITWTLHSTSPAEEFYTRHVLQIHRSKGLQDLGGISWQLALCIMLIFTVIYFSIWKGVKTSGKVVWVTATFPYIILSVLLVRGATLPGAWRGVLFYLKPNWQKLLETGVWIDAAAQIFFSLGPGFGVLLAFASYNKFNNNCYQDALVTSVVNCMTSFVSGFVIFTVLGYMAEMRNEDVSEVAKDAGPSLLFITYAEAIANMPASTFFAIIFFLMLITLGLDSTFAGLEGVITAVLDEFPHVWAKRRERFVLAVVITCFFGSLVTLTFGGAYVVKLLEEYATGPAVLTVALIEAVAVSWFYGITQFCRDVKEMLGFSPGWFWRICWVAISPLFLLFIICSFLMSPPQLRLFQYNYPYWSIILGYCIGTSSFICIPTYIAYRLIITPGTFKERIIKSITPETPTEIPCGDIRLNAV

[4] = target: cGMP-inhibited 3',5'-cyclic phosphodiesterase 3A (Homo sapiens, UniProt Q14432); type: functional
[5] = target: 5-hydroxytryptamine receptor 2B (Homo sapiens, UniProt P41595); type: functional, cell-based
Chain of 5-hydroxytryptamine receptor 2B (P41595 whole entry): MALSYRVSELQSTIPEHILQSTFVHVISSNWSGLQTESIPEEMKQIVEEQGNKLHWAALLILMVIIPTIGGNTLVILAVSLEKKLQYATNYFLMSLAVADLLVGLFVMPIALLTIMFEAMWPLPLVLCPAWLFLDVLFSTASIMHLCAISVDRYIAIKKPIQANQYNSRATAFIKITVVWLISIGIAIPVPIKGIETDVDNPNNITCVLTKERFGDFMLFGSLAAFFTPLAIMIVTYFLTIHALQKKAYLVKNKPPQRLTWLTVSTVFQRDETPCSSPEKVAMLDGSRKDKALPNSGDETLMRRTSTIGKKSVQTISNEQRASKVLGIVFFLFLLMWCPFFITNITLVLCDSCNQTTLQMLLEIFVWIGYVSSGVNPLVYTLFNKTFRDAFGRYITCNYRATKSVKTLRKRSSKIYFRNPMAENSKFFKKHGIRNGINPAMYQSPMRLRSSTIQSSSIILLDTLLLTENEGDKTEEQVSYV

[6] = target: T5, Prostaglandin G/H synthase 1 (Homo sapiens, UniProt P23219); type: functional
[7] = target: Voltage-gated inwardly rectifying potassium channel KCNH2 (Homo sapiens, UniProt Q12809); type: functional; conditions: read-out: AC50
Chain of Voltage-gated inwardly rectifying potassium channel KCNH2 (Q12809 whole entry): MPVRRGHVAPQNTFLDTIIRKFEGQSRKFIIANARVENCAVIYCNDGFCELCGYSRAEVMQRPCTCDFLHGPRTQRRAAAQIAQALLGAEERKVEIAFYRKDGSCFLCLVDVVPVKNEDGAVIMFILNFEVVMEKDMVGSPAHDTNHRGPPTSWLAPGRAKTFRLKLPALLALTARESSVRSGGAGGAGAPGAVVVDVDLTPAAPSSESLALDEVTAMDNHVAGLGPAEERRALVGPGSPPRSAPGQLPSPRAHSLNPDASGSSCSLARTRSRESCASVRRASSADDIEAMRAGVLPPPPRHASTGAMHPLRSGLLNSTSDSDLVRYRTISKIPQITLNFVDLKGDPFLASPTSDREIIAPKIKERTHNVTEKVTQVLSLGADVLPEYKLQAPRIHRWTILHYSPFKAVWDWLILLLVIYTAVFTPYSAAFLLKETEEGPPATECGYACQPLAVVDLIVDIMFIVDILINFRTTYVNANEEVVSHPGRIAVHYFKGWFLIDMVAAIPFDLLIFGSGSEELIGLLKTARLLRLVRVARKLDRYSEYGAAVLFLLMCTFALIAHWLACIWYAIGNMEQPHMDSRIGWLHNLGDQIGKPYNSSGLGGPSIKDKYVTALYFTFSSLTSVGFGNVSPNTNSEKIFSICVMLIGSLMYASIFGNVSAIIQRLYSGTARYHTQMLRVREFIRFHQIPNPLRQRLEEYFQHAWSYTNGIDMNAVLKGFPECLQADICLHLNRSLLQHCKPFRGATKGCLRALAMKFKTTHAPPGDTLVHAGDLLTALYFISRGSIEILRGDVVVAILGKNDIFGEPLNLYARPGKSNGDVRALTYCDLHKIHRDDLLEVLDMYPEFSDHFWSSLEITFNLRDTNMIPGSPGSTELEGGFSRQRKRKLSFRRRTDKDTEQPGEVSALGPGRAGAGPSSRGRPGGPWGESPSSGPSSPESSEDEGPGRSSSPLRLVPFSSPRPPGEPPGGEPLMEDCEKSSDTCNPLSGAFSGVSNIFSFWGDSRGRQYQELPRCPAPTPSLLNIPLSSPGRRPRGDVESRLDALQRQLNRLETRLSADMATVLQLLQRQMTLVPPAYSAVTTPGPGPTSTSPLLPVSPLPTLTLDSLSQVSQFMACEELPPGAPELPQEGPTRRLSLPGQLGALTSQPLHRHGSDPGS

Histamine H3 receptor = Histamine H3 receptor (Homo sapiens, UniProt Q9Y5N1)
[8] = target: Vascular endothelial growth factor receptor 2 (Homo sapiens, UniProt P35968); type: functional
Chain of Vascular endothelial growth factor receptor 2 (P35968 whole entry): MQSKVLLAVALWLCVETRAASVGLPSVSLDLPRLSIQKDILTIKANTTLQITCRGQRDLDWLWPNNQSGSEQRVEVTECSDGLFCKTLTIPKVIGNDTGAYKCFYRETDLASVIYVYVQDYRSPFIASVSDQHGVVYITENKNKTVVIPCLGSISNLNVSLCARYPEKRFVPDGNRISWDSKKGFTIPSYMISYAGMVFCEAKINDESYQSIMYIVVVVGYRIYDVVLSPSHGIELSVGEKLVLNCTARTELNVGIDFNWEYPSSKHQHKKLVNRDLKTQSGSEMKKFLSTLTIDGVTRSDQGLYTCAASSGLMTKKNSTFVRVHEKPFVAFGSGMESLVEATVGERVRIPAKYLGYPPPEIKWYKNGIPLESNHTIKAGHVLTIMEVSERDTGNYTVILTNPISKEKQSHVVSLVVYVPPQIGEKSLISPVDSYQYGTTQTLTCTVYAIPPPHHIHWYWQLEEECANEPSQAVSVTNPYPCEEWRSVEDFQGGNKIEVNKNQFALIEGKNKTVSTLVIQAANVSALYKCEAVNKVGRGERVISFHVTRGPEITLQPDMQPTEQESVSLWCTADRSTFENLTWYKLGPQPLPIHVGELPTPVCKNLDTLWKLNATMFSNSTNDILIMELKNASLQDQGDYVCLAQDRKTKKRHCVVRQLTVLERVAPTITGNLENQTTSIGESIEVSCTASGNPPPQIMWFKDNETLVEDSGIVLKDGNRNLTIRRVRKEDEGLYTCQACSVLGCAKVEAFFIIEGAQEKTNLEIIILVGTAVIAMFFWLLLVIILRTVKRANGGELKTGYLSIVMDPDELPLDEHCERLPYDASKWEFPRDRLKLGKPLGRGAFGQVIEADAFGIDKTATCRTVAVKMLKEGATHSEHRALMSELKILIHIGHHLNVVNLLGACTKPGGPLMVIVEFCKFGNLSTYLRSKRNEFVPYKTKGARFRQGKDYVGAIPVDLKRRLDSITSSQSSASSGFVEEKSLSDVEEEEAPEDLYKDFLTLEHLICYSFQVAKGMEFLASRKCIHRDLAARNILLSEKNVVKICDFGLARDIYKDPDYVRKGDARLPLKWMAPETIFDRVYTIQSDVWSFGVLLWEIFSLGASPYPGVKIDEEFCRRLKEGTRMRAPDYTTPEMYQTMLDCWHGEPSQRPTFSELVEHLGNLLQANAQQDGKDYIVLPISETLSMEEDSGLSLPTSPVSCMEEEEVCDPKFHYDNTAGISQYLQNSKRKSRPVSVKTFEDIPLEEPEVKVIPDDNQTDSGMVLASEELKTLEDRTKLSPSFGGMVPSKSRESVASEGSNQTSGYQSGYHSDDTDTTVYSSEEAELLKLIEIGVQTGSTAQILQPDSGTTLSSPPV

D(3) dopamine receptor = D(3) dopamine receptor (Homo sapiens, UniProt P35462)
Chain of D(3) dopamine receptor (P35462 whole entry): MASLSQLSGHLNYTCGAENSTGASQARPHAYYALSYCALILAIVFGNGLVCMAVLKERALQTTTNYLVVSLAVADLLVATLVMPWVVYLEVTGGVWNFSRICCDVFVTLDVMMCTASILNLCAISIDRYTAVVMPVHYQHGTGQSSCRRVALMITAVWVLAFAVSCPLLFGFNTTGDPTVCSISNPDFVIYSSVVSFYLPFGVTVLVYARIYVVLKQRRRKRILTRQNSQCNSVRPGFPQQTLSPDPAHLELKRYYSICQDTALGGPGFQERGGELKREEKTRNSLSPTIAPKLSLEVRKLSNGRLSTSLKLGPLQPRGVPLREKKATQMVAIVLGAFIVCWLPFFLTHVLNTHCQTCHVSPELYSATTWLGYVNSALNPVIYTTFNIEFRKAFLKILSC

Acetylcholinesterase = Acetylcholinesterase (Homo sapiens, UniProt P22303); type: functional
Chain of Acetylcholinesterase (P22303 whole entry): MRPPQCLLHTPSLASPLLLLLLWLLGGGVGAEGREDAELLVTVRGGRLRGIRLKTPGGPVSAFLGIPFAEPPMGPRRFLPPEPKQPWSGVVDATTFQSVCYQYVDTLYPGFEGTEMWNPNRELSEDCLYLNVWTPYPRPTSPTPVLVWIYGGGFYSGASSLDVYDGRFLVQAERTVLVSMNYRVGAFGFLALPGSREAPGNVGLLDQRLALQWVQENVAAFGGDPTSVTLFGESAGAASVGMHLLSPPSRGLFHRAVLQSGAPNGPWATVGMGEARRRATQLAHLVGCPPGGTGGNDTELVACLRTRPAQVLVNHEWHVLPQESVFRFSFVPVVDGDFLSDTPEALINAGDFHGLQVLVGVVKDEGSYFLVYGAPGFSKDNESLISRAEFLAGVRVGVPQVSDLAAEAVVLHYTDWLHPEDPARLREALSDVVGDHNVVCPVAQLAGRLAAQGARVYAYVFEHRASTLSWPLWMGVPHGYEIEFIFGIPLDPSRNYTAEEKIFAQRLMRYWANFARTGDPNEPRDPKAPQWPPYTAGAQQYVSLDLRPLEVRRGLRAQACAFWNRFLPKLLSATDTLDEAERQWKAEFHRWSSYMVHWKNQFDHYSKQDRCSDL

[9] = target: T5, Prostaglandin G/H synthase 1; type: functional; remark: listed apart in the source
Prothrombin = Prothrombin (Homo sapiens, UniProt P00734); type: functional
Further: assay procedure not described here.

| Structure (SMILES) | AC50 (Progesterone receptor) | AC50 [1] | AC50 [2] | AC50 (Thromboxane A2 receptor) | AC50 [3] | AC50 [4] | AC50 [5] | AC50 [6] | AC50 [7] | AC50 (Histamine H3 receptor) | AC50 [8] | AC50 (D(3) dopamine receptor) | AC50 (Acetylcholinesterase) | AC50 [9] | AC50 (Prothrombin) |
| --- | --- | --- | --- | --- | --- | --- | --- | --- | --- | --- | --- | --- | --- | --- | --- |
| CCCNC(C)C(=O)Nc1c(C)csc1C(=O)OC (stereo not given) [ARTICAINE] | > 30 µM | > 30 µM | > 30 µM | > 30 µM | > 30 µM | > 30 µM | > 30 µM | > 30 µM | > 30 µM | > 30 µM | > 30 µM | > 30 µM | > 30 µM | > 30 µM | > 30 µM |
| CC(C)(C)N1CCC(c2ccccc2)(c2ccccc2)CC1 [BUDIPINE] | > 30 µM | > 30 µM | 0.57 µM | > 30 µM | > 30 µM | > 30 µM | > 30 µM | > 30 µM | 6.5 µM | > 30 µM | > 30 µM | > 30 µM | > 30 µM | > 30 µM | > 30 µM |
| C=CCN1C[C@H](C(=O)N(CCCN(C)C)C(=O)NCC)C[C@@H]2c3cccc4[nH]cc(c34)C[C@H]21 [CABERGOLINE] | > 30 µM | > 30 µM | > 30 µM | > 30 µM | > 30 µM | > 30 µM | 0.0032 µM | > 30 µM | 7.68 µM | > 30 µM | > 30 µM | 0.003 µM | 11.4 µM | > 30 µM | > 30 µM |
| CC(=O)OCC1=C(C(=O)O)N2C(=O)[C@@H](NC(=O)[C@H](N)c3ccccc3)[C@H]2SC1 [CEPHALOGLYCIN] | > 30 µM | > 30 µM | > 30 µM | > 30 µM | > 30 µM | > 30 µM | > 30 µM | 26.5 µM | > 30 µM | > 30 µM | > 30 µM | > 30 µM | > 30 µM | 5.93 µM | > 30 µM |
| CC(C)(C)C(=O)C(Oc1ccc(Cl)cc1)n1ccnc1 (stereo not given) [CLIMBAZOLE] | > 30 µM | > 30 µM | 10.2 µM | > 30 µM | 29.7 µM | > 30 µM | > 30 µM | > 30 µM | > 30 µM | > 30 µM | > 30 µM | > 30 µM | > 30 µM | > 30 µM | > 30 µM |
| NC1CCN(c2c(F)cc3c(=O)c(C(=O)O)cn(C4CC4)c3c2Cl)C1 (stereo not given) [CLINAFLOXACIN] | > 30 µM | > 30 µM | > 30 µM | > 30 µM | > 30 µM | > 30 µM | > 30 µM | > 30 µM | > 30 µM | > 30 µM | > 30 µM | > 30 µM | > 30 µM | > 30 µM | > 30 µM |
